Experimental data reported in ChEMBL document CHEMBL1201862, “PubChem BioAssay data set” (2004).
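Exposure lasted 48 hours, with cells grown in 96-well plates and compounds tested at five concentrations. Here, GI50 denotes the concentration required for 50% inhibition of growth.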 The source made the active and inactive calls. Rule as the data show it: active = GI50 up to about 1.1 µM and inactive = higher.

Tests used:
Test in all cases: growth of human tumour cells (NCI), 48 h
[1] = tested on: A549
[2] = tested on: NCI-H226
[3] = tested on: T47D
[4] = tested on: NCI-H522
[5] = tested on: HT-29
[6] = tested on: MDA-MB-435
[7] = tested on: HL-60
[8] = tested on: A498
[9] = tested on: Hs-578T
[10] = tested on: UACC-257
[11] = tested on: SK-MEL-2
[12] = tested on: CCRF-CEM
[13] = tested on: SNB-75
[14] = tested on: IGROV-1
[15] = tested on: MOLT-4
[16] = tested on: RXF 393
[17] = tested on: HOP-62
[18] = tested on: EKVX
[19] = tested on: M14
[20] = tested on: Malme-3M

Measured: GI50

C[C@@H](c1ccccc1)n1c(N)c(-c2ccccn2)c2ccc([N+](=O)[O-])cc2c1=O
inactive: [1] 34.9 µM | [2] 36.6 µM | [3] 43.2 µM | [4] 48.2 µM | [5] > 100 µM | [6] 92.7 µM | [7] 52.4 µM | [8] 18.5 µM | [9] 26.9 µM | [10] 22.2 µM | [11] > 100 µM | [12] 32.1 µM | [13] 12.8 µM

CC(=O)/C(=C/c1ccccc1F)C(=O)c1ccccc1
inactive: [1] 57 µM | [14] 44.2 µM | [2] 76.4 µM | [3] 24.9 µM | [4] 26.5 µM | [5] 33.1 µM | [6] 37.9 µM | [7] 21.4 µM | [8] > 100 µM | [9] 32.4 µM | [10] 25.9 µM | [15] 2.19 µM | [16] 17.4 µM | [17] 35.2 µM | [11] 27.5 µM | [13] 38.9 µM | [18] 67.1 µM | [19] 56 µM

Cc1ccc(Nc2cc(=O)[nH]c(=O)[nH]2)cc1CS
inactive: [1] > 100 µM | [14] > 100 µM | [2] > 100 µM | [3] > 100 µM | [4] > 100 µM | [5] > 100 µM | [6] > 100 µM | [8] > 100 µM | [9] > 100 µM | [10] > 100 µM | [15] > 100 µM | [16] 89.9 µM | [17] > 100 µM | [20] > 100 µM | [11] > 100 µM | [12] > 100 µM | [13] > 100 µM | [18] > 100 µM | [19] > 100 µM

COc1ccc2c(c1)/C(=C\c1c(Cl)nc3n1CCS3)C(=O)N2
inactive: [1] 5.62 µM | [14] 7.28 µM | [3] 5.16 µM | [4] 3.73 µM | [5] 3.25 µM | [6] 1.29 µM | [7] 3.58 µM | [8] 4.89 µM | [9] 11.2 µM | [10] 5.48 µM | [15] 4.01 µM | [16] 2.13 µM | [17] 6.35 µM | [20] 11.2 µM | [12] 6.31 µM | [13] 10.8 µM | [18] 18.3 µM | [19] 7.5 µM

COc1ccc(Cc2cc(Cc3ccc(OC)cc3)cc(Cc3ccc(OC)cc3)c2)cc1
inactive: [1] > 100 µM | [14] > 100 µM | [2] > 100 µM | [3] > 100 µM | [4] > 100 µM | [5] > 100 µM | [6] 13.6 µM | [7] > 100 µM | [8] > 100 µM | [9] > 100 µM | [10] > 100 µM | [15] > 100 µM | [17] > 100 µM | [20] 56.8 µM | [11] > 100 µM | [13] > 100 µM | [18] > 100 µM | [19] > 100 µM

Cc1ccc(NC(=O)c2ccccc2C(=O)O)cc1C
inactive: [1] > 100 µM | [14] > 100 µM | [2] > 100 µM | [3] > 100 µM | [4] > 100 µM | [5] > 100 µM | [6] > 100 µM | [8] > 100 µM | [9] > 100 µM | [10] > 100 µM | [15] > 100 µM | [16] > 100 µM | [17] > 100 µM | [20] > 100 µM | [11] > 100 µM | [13] > 100 µM | [18] > 100 µM | [19] > 100 µM

O=C1c2c(Br)sc(Br)c2[C@H]2NC(=S)O[C@@H]12
inactive: [1] 20.8 µM | [14] 16.7 µM | [2] 20.7 µM | [3] 21.8 µM | [4] 1.86 µM | [5] 14.5 µM | [6] 13.8 µM | [8] 23.5 µM | [9] 23.2 µM | [10] 16.8 µM | [15] 1.32 µM | [16] 13.3 µM | [17] 18 µM | [20] 15.7 µM | [11] 17.4 µM | [12] 2.15 µM | [13] 19.1 µM | [18] 20.4 µM | [19] 14.3 µM

C1CCSCCCCSCCCCSCCCCSC1
inactive: [1] > 100 µM | [14] > 100 µM | [2] > 100 µM | [3] > 100 µM | [4] > 100 µM | [5] > 100 µM | [6] > 100 µM | [8] > 100 µM | [9] > 100 µM | [10] > 100 µM | [16] > 100 µM | [17] > 100 µM | [11] > 100 µM | [13] 64 µM | [18] > 100 µM | [19] > 100 µM

CCc1n[nH]c(=O)n1N
inactive: [1] > 100 µM | [14] > 100 µM | [2] > 100 µM | [3] > 100 µM | [4] > 100 µM | [5] > 100 µM | [6] > 100 µM | [7] > 100 µM | [8] > 100 µM | [9] > 100 µM | [10] > 100 µM | [15] > 100 µM | [17] > 100 µM | [20] > 100 µM | [11] > 100 µM | [12] > 100 µM | [13] > 100 µM | [18] > 100 µM | [19] > 100 µM

COC(=O)C1(NC(=O)C(Cc2ccccc2)N(C(=O)OC(C)(C)C)C(=O)OC(C)(C)C)CCCC1 (stereo not drawn)
inactive: [1] 37.9 µM | [14] > 100 µM | [2] > 100 µM | [3] 36.6 µM | [6] 83.9 µM | [7] 22.1 µM | [8] 25.8 µM | [9] > 100 µM | [15] 31.8 µM | [17] 77.8 µM | [11] > 100 µM | [12] 22.9 µM | [13] > 100 µM | [18] 66.2 µM | [19] > 100 µM

Cc1cc2nn(C3CCCCO3)nc2cc1C (stereo not drawn)
inactive: [1] > 100 µM | [14] > 100 µM | [2] > 100 µM | [3] > 100 µM | [4] > 100 µM | [5] > 100 µM | [6] > 100 µM | [8] 60.4 µM | [9] > 100 µM | [10] > 100 µM | [15] > 100 µM | [16] > 100 µM | [17] > 100 µM | [20] > 100 µM | [11] > 100 µM | [12] > 100 µM | [13] > 100 µM | [18] > 100 µM | [19] > 100 µM

NCCCNCCCCN1CCOC1=O
inactive: [1] > 100 µM | [14] > 100 µM | [2] > 100 µM | [3] > 100 µM | [4] > 100 µM | [5] > 100 µM | [6] > 100 µM | [7] > 100 µM | [8] > 100 µM | [9] > 100 µM | [10] > 100 µM | [15] > 100 µM | [17] > 100 µM | [20] > 100 µM | [11] > 100 µM | [12] > 100 µM | [13] > 100 µM | [18] > 100 µM | [19] > 100 µM

CCCCCCCCCCCCCCCCCC(=O)OCC(COC1OC(COP(=O)(O)O)C(O)C(O)C1O)OC(=O)CCCCCCCCCCCCCCCCC (stereo not drawn)
inactive: [1] 7.46 µM | [14] 4.02 µM | [2] 4.21 µM | [3] 11.9 µM | [5] 5.32 µM | [6] 9.71 µM | [7] 12.4 µM | [8] 6.03 µM | [9] 6.14 µM | [10] 8.61 µM | [15] 7.5 µM | [16] 8.95 µM | [17] 8.26 µM | [20] 7.52 µM | [12] 4.95 µM | [13] 4.63 µM | [18] 7.74 µM | [19] 9.14 µM

Nc1nc(Cl)cc(NCCO)n1
inactive: [1] > 100 µM | [14] > 100 µM | [2] > 100 µM | [3] > 100 µM | [4] > 100 µM | [5] > 100 µM | [6] > 100 µM | [8] > 100 µM | [9] > 100 µM | [10] > 100 µM | [15] > 100 µM | [16] > 100 µM | [17] > 100 µM | [20] > 100 µM | [11] > 100 µM | [13] > 100 µM | [18] > 100 µM | [19] > 100 µM

O=C1CC2[C@@H](N3CCCC3)CCC(N1Cc1ccccc1)C2(O)O (stereo partly drawn)
inactive: [1] > 100 µM | [14] > 100 µM | [2] > 100 µM | [3] > 100 µM | [4] > 100 µM | [5] > 100 µM | [6] > 100 µM | [7] > 100 µM | [8] > 100 µM | [9] > 100 µM | [10] > 100 µM | [15] > 100 µM | [16] > 100 µM | [17] > 100 µM | [20] > 100 µM | [12] > 100 µM | [18] > 100 µM | [19] > 100 µM

CCOC1Oc2ccccc2-c2nc(SC)ncc21 (stereo not drawn)
inactive: [1] > 100 µM | [14] 35.2 µM | [2] > 100 µM | [3] 27.4 µM | [4] 71.3 µM | [5] 52.4 µM | [6] > 100 µM | [7] 45.9 µM | [8] 28.9 µM | [9] 79.8 µM | [10] > 100 µM | [15] 50.8 µM | [16] > 100 µM | [11] > 100 µM | [12] > 100 µM | [13] > 100 µM | [18] 36 µM | [19] > 100 µM
